Row | Structure (SMILES) | melting point [°C]
1 | CN(C)c1cc2[nH]c(C3CCCCC3)nc2cc1N | 135 to 137
2 | CN(C)c1cc2[nH]c(C3CCCCC3)nc2cc1NC(=O)c1ccc(OC(F)F)cc1 | 183 to 185
3 | CN(C)c1cc2[nH]c(C3CCCCC3)nc2cc1NC(=O)c1ccc(F)cc1 | 196 to 197
4 | COc1cccc(C(=O)Nc2cc3nc(C4CCCCC4)[nH]c3cc2N(C)C)c1OC | 173 to 174

— US9845296B2 (dated 2017)
